Data published in PubChem BioAssay AID330 (DTP/NCI, 2004).
Values joined by “and” are separate entries in the source; they are usually repeats but may differ in a detail not shown here. Identical values can stand only once. Inconclusive results and toxic doses are left out.

Tested on: P388 leukemia ip, CD2F1 mice, survival T/C
Assay: NCI In Vivo Anticancer Drug Screen. Data for tumor model P388 Leukemia (intraperitoneal) in CD2F1 (CDF1) mice
Details: endpoint: median survival time, higher = longer survival
Summary of the method: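 Mice carrying the transplanted tumor received test compound or vehicle. Survival was recorded in each group, and the value is the treated-group measurement divided by that of the vehicle-treated control group.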

[1] = dose: 50.0 mg/kg/injection, schedule: Q01DX009 (ip), vehicle: saline with Tween-80
[2] = dose: 100.0 mg/kg/injection, schedule: Q01DX009 (ip), vehicle: saline with Tween-80
[3] = dose: 50.0 mg/kg/injection, schedule: Q01DX009 (ip), vehicle: saline
[4] = dose: 100.0 mg/kg/injection, schedule: Q01DX009 (ip), vehicle: saline
[5] = dose: 200.0 mg/kg/injection, schedule: Q01DX009 (ip), vehicle: saline
[6] = dose: 50.0 mg/kg/injection, schedule: Q01DX005 (ip), vehicle: Klucel (hydroxypropylcellulose) (HPC)
[7] = dose: 100.0 mg/kg/injection, schedule: Q01DX005 (ip), vehicle: Klucel (hydroxypropylcellulose) (HPC)
[8] = dose: 25.0 mg/kg/injection, schedule: Q01DX009 (ip), vehicle: saline with Tween-80
[9] = dose: 200.0 mg/kg/injection, schedule: Q01DX009 (ip), vehicle: saline with Tween-80
[10] = dose: 50.0 mg/kg/injection, schedule: Q01DX005 (ip), vehicle: saline with Tween-80
[11] = dose: 100.0 mg/kg/injection, schedule: Q01DX005 (ip), vehicle: saline with Tween-80
[12] = dose: 200.0 mg/kg/injection, schedule: Q01DX005 (ip), vehicle: saline with Tween-80

SMILES: S=C(Nc1ccccc1)SSC(Cl)(Cl)Cl
- T/C (dose: 12.5 mg/kg/injection, schedule: Q01DX009 (ip), vehicle: saline + Tween-80 + alcohol): 93 % of control
- T/C (dose: 25.0 mg/kg/injection, schedule: Q01DX009 (ip), vehicle: saline + Tween-80 + alcohol): 94 % of control
- T/C (dose: 50.0 mg/kg/injection, schedule: Q01DX009 (ip), vehicle: saline + Tween-80 + alcohol): 109 % of control
- T/C [1]: 117 % of control
- T/C [2]: 114 % of control

SMILES: CN(C1=NC1(C)C)c1ccccc1
- T/C [3]: 96 % of control
- T/C [4]: 94 % of control
- T/C [5]: 91 % of control

SMILES: C=C1C(=O)OC2C(OC(C)=O)C1C(OC(=O)C(C)CC)[C@]1(C)C(=O)C=C[C@H]1[C@@H]2C (stereo partly drawn)
- T/C (dose: 0.78 mg/kg/injection, schedule: Q01DX005 (ip), vehicle: Klucel (hydroxypropylcellulose) (HPC)): 97 % of control
- T/C (dose: 1.56 mg/kg/injection, schedule: Q01DX005 (ip), vehicle: Klucel (hydroxypropylcellulose) (HPC)): 101 % of control and 113 % of control
- T/C (dose: 3.12 mg/kg/injection, schedule: Q01DX005 (ip), vehicle: Klucel (hydroxypropylcellulose) (HPC)): 111 % of control
- T/C (dose: 6.25 mg/kg/injection, schedule: Q01DX005 (ip), vehicle: Klucel (hydroxypropylcellulose) (HPC)): 116 % of control and 122 % of control
- T/C (dose: 12.5 mg/kg/injection, schedule: Q01DX005 (ip), vehicle: Klucel (hydroxypropylcellulose) (HPC)): 99 % of control and 102 % of control

SMILES: O=C(N/N=C/c1ccccc1O)c1cc2ccccc2cc1O
- T/C (dose: 7.5 mg/kg/injection, schedule: Q01DX005 (ip), vehicle: saline with Tween-80): 92 % of control
- T/C (dose: 15.0 mg/kg/injection, schedule: Q01DX005 (ip), vehicle: saline with Tween-80): 88 % of control

SMILES: Clc1cc(-c2ccccc2)no1
- T/C (dose: 25.0 mg/kg/injection, schedule: Q04DX003 (ip), vehicle: Klucel (hydroxypropylcellulose) (HPC)): 109 % of control
- T/C (dose: 50.0 mg/kg/injection, schedule: Q04DX003 (ip), vehicle: Klucel (hydroxypropylcellulose) (HPC)): 108 % of control
- T/C (dose: 100.0 mg/kg/injection, schedule: Q04DX003 (ip), vehicle: Klucel (hydroxypropylcellulose) (HPC)): 99 % of control and 112 % of control

SMILES: Nc1nc(-c2cccnc2)cc(-c2cc(-c3cccnc3)nc(N)n2)n1
- T/C (dose: 60.0 mg/kg/injection, schedule: Q01DX005 (ip), vehicle: saline): 96 % of control
- T/C (dose: 120.0 mg/kg/injection, schedule: Q01DX005 (ip), vehicle: saline): 100 % of control

SMILES: CCCCCCCCCCCN(CCCCCCCCCCC)CC(O)c1cc2c(c3ccccc13)CCCC2 (stereo not drawn)
- T/C [6]: 98 % of control
- T/C [7]: 100 % of control
- T/C (dose: 200.0 mg/kg/injection, schedule: Q01DX005 (ip), vehicle: Klucel (hydroxypropylcellulose) (HPC)): 96 % of control

SMILES: CC(=O)OC1CCC2C3CCC4CC(=O)CCC4(C)C3CCC12C (stereo not drawn)
- T/C [8]: 91 % of control
- T/C [1]: 97 % of control
- T/C [2]: 97 % of control
- T/C [9]: 100 % of control

SMILES: CCOC(=O)c1cnc(SCc2ccccc2)[nH]c1=O
- T/C (dose: 100.0 mg/kg/injection, schedule: Q04DX003 (ip), vehicle: saline with Tween-80): 100 % of control
- T/C (dose: 200.0 mg/kg/injection, schedule: Q04DX003 (ip), vehicle: saline with Tween-80): 90 % of control
- T/C (dose: 400.0 mg/kg/injection, schedule: Q04DX003 (ip), vehicle: saline with Tween-80): 100 % of control

SMILES: O=C1c2cccc3c([N+](=O)[O-])ccc(c23)C(=O)N1CCc1ccccn1
- T/C [10]: 101 % of control
- T/C [11]: 111 % of control
- T/C [12]: 96 % of control

SMILES: CN1c2ccccc2C(C)(C)C12C=Cc1cc(O)ccc1O2 (stereo not drawn)
- T/C [3]: 93 % of control
- T/C [4]: 96 % of control
- T/C [5]: 113 % of control

SMILES: S=C1N=C2c3ccccc3C2C(=S)S1 (stereo not drawn)
- T/C [8]: 93 % of control
- T/C [1]: 101 % of control and 105 % of control
- T/C [2]: 102 % of control and 120 % of control and 91 % of control
- T/C [9]: 100 % of control and 104 % of control and 87 % of control

SMILES: CC1(C)C/C(=C\c2cc(O)ccc2[N+](=O)[O-])C(=O)c2ccccc21
- T/C [2]: 86 % of control
- T/C [9]: 95 % of control
- T/C (dose: 400.0 mg/kg/injection, schedule: Q01DX009 (ip), vehicle: saline with Tween-80): 90 % of control

SMILES: CCN(CC)CCNc1ccc(C)c2sc3ccccc3c(=O)c12
- T/C (dose: 6.25 mg/kg/injection, schedule: Q01DX005 (ip), vehicle: distilled water + Tween-80): 100 % of control and 106 % of control
- T/C (dose: 6.25 mg/kg/injection, schedule: Q01DX009 (ip), vehicle: water): 100 % of control
- T/C (dose: 7.8 mg/kg/injection, schedule: Q01DX005 (ip), vehicle: saline): 109 % of control
- T/C (dose: 12.5 mg/kg/injection, schedule: Q01DX005 (ip), vehicle: distilled water + Tween-80): 101 % of control and 104 % of control and 107 % of control
- T/C (dose: 12.5 mg/kg/injection, schedule: Q01DX009 (ip), vehicle: water): 99 % of control
- T/C (dose: 13.0 mg/kg/injection, schedule: Q01DX005 (ip), vehicle: water): 120 % of control
- T/C (dose: 15.6 mg/kg/injection, schedule: Q01DX005 (ip), vehicle: saline): 113 % of control
- T/C (dose: 16.2 mg/kg/injection, schedule: Q01DX005 (ip), vehicle: saline): 107 % of control and 108 % of control
- T/C (dose: 16.2 mg/kg/injection, schedule: Q01DX005 (ip), vehicle: water): 107 % of control
- T/C (dose: 19.4 mg/kg/injection, schedule: Q01DX005 (ip), vehicle: saline): 102 % of control
- T/C (dose: 19.4 mg/kg/injection, schedule: Q01DX005 (ip), vehicle: water): 109 % of control
- T/C (dose: 19.44 mg/kg/injection, schedule: Q01DX005 (ip), vehicle: saline): 114 % of control
- T/C (dose: 21.6 mg/kg/injection, schedule: Q01DX005 (ip), vehicle: water): 117 % of control
- T/C (dose: 25.0 mg/kg/injection, schedule: Q01DX005 (ip), vehicle: saline with Tween-80): 114 % of control
- T/C (dose: 25.0 mg/kg/injection, schedule: Q01DX009 (ip), vehicle: water): 100 % of control
- T/C (dose: 27.0 mg/kg/injection, schedule: Q01DX005 (ip), vehicle: saline): 114 % of control
- T/C (dose: 27.0 mg/kg/injection, schedule: Q01DX005 (ip), vehicle: water): 118 % of control
- T/C (dose: 32.4 mg/kg/injection, schedule: Q01DX005 (ip), vehicle: saline): 111 % of control
- T/C (dose: 32.4 mg/kg/injection, schedule: Q01DX005 (ip), vehicle: water): 119 % of control
- T/C (dose: 38.9 mg/kg/injection, schedule: Q04DX003 (ip), vehicle: saline): 119 % of control
- T/C (dose: 45.0 mg/kg/injection, schedule: Q01DX005 (ip), vehicle: saline): 124 % of control
- T/C (dose: 50.0 mg/kg/injection, schedule: Q01DX009 (ip), vehicle: water): 115 % of control
- T/C (dose: 54.0 mg/kg/injection, schedule: Q01DX005 (ip), vehicle: saline): 152 % of control
- T/C (dose: 54.0 mg/kg/injection, schedule: Q01DX005 (ip), vehicle: water): 123 % of control
- T/C (dose: 62.5 mg/kg/injection, schedule: Q01DX005 (ip), vehicle: saline): 181 % of control
- T/C (dose: 75.0 mg/kg/injection, schedule: Q01DX005 (ip), vehicle: saline): 156 % of control
- T/C (dose: 75.0 mg/kg/injection, schedule: Q01DX005 (ip), vehicle: water): 151 % of control
- T/C (dose: 80.0 mg/kg/injection, schedule: Q01DX005 (ip), vehicle: water): 156 % of control
- T/C (dose: 90.0 mg/kg/injection, schedule: Q01DX005 (ip), vehicle: saline): 154 % of control
- T/C (dose: 125.0 mg/kg/injection, schedule: Q01DX005 (ip), vehicle: saline): 166 % of control and 168 % of control
- T/C (dose: 180.0 mg/kg/injection, schedule: Q04DX003 (ip), vehicle: saline): 168 % of control

SMILES: COCn1ccnc1C(=O)c1ccccc1
- T/C [1]: 100 % of control
- T/C [2]: 106 % of control
- T/C [9]: 101 % of control

SMILES: Cc1cccc(Cl)c1NC1=NCCO1
- T/C (dose: 6.25 mg/kg/injection, schedule: Q04DX003 (ip), vehicle: saline with Tween-80): 95 % of control
- T/C (dose: 12.5 mg/kg/injection, schedule: Q04DX003 (ip), vehicle: saline with Tween-80): 95 % of control
- T/C (dose: 25.0 mg/kg/injection, schedule: Q04DX003 (ip), vehicle: saline with Tween-80): 100 % of control

SMILES: Cc1ccc2nc3c(nc2c1)n(-c1ccccc1)c(=O)n3-c1cccc(Br)c1
- T/C [10]: 88 % of control
- T/C [11]: 91 % of control
- T/C [12]: 100 % of control

SMILES: O=C(CN1CCC(O)(c2ccccc2)CC1)N1CCN(/C=C/c2ccccc2)CC1
- T/C (dose: 60.0 mg/kg/injection, schedule: Q01DX005 (ip), vehicle: saline with Tween-80): 100 % of control
- T/C (dose: 120.0 mg/kg/injection, schedule: Q01DX005 (ip), vehicle: saline with Tween-80): 104 % of control
- T/C (dose: 240.0 mg/kg/injection, schedule: Q01DX005 (ip), vehicle: saline with Tween-80): 91 % of control

SMILES: COc1c(OCC(O)CN2CCCCC2)c2c(C)coc2c2ccoc12 (stereo not drawn)
- T/C [6]: 100 % of control
- T/C [7]: 96 % of control
